Test results taken from US20260365671A1, “HETEROCYCLIC COMPOUND” (Takeda Pharmaceutical Company Limited, priority 2022, published 2026).

Tests used:
NLRP3 inflammasome = target: T1, NLRP3 inflammasome (Homo sapiens, UniProt Q96P20); test: IL-1β TR-FRET assay (THP-1 cells differentiated to macrophages with IFN-γ, LPS primed, ATP activated; HTRF); assay type: cell-based; details: THP-1 macrophages, 50 ng/mL LPS priming, compound 30 min, 20 mM ATP 2 hours
T1 construct: IL-1beta HTRF
Procedure: (§1) The biological activity of Compound (I) with respect to NLRP3 was determined using the following in vitro methods.
IL-1β TR-FRET Assay (Reported as IC50)
Monocytic THP-1 cells (ATCC: TIB-202) were maintained in accordance with the provider's instructions in RPMI media (Life Technologies, Cat #A10491-01); RPMI was supplemented with 10% heat inactivated fetal bovine serum (Corning, Cat #35-010-CV). The cells were differentiated into macrophages by the addition of 25 ng/mL IFN-γ (PeproTech, Cat #AF300-02-100UG) for 24 hours at 37 °C/5% CO2. Media was exchanged with fresh media with no FBS, and the cells were treated with 50 ng/mL LPS (priming step) (LPS-EK: Invivogen, Cat #tlrl-peklps). The cells were plated at 240,000 cells per well in 384-well flat-bottom cell culture plates (FALCON, Cat #353962) and were incubated for 24 hours at 37 °C/5% CO2. Compounds were serially diluted (half log dilutions) with DMSO and were finally diluted with Media with no FBS. The compounds were added to the cells in 384-well plates (added in 1:3) and then the plates were incubated for 30 minutes at 37 °C/5% CO2. The NLRP3 inflammasome was activated with the addition of 20 mM ATP (Sigma Cat #A3377-25G) and the cells were incubated for 2 hours at 37 °C/5% CO2. At the end of the incubation period, 30 μL supernatant was transferred to another 384-well plate and mixed on a plate shaker for 1 minutes. The supernatant was mixed with HTRF Antibody (Human IL1 beta kit, Cisbio, 62HIL1BPEH) in assay plates (Greiner Bio-One, Cat #784075) and the assay plates were incubated in shading box at room temperature for 16-24 hours. HTRF signal was measured by EnVision (Perkinelmer) in accordance with the manufacturer's instructions.
(§2) The IC50 values were calculated from a plot of percentage of inhibition versus the inhibitor concentration by a logistics curve fit according to: Y=[Bottom+(Top−Bottom)]/(1+10^[(Log IC50−X)·Hill Slope], where Y is the % inhibition at the inhibitor concentration, X, “Bottom” is the lowest inhibition value, i.e., 0%, “Top” is the maximum inhibition value, i.e., 100%, and the “Hill Slope” describes the slope of the sigmoidal curve between the “Bottom” and “Top” values. The curve fitting was conducted with XLfit (ver. 5.5.0.5, ID Business Solutions Limited) or internally developed software.
(§3) Table 2 lists in vitro biological assay data (IL-1β and TNF-α) for the compounds shown in the examples. These assays are described in the section entitled Biological Activity, above.

NF-κB pathway = test: TNF-α assay (THP-1 cells differentiated to macrophages with IFN-γ, NF-κB pathway activated with LPS; ELISA); assay type: cell-based, Human; details: Homo sapiens, THP-1, THP-1 macrophages, compound 30 min, 50 ng/mL LPS 3 hours
Procedure: as §1
TNF-α Assay (Reported as IC50)
Monocytic THP-1 cells (ATCC: TIB-202) were maintained in accordance with the provider's instructions in RPMI media (Life Technologies, Cat #A10491-01); RPMI was supplemented with 10% heat inactivated fetal bovine serum (Hyclone Cat #SH30396.03). The cells were differentiated into macrophages by the addition of 25 ng/mL IFN-γ for 24 hours at 37 °C/5% CO2. Media was exchanged with fresh media with no FBS. The cells were plated at 40,000 cells per well in 384-well flat-bottom cell culture plates (Costar 3764) containing compounds (added in 1:1000) in a 1:3.16 serial dilution series in DMSO and were incubated for 30 minutes at 37 °C/5% CO2. The NF-κB pathway was activated with the addition of 50 ng/mL LPS and the cells were incubated for 3 hours at 37 °C/5% CO2. At the end of the incubation period, supernatant ([…]) was removed, and […] were monitored using an ELISA (Human TNF-α ELISA, R&D systems, Cat #DY210) according to the manufacturer's instructions.
as §2, §3

T1 sequence (Q96P20 whole entry): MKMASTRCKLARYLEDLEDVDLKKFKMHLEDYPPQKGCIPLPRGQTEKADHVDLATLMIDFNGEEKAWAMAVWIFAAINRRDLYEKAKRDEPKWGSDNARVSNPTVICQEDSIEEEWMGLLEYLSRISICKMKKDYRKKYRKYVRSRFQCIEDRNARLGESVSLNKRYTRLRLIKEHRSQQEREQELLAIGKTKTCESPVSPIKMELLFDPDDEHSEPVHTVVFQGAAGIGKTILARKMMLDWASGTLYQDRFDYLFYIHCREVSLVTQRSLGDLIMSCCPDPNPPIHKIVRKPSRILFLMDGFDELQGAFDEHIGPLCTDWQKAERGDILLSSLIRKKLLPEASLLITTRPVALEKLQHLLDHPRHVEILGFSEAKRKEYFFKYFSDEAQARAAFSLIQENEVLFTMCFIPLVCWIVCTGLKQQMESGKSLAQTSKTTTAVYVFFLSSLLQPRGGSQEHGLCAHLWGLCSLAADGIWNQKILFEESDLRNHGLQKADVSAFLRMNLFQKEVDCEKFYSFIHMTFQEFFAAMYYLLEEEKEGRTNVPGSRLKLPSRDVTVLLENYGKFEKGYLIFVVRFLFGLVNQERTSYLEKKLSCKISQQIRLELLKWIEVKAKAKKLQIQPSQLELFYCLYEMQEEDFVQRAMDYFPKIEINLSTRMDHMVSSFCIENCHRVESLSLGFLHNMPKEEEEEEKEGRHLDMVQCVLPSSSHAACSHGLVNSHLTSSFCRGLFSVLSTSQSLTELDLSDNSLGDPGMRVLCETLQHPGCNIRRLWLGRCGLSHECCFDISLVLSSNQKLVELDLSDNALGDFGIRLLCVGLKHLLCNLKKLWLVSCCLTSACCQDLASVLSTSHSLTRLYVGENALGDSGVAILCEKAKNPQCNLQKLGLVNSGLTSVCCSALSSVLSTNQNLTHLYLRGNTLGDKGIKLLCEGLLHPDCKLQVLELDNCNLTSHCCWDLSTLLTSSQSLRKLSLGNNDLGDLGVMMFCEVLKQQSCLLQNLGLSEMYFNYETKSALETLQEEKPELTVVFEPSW

IC50 (NLRP3 inflammasome) [nM] | IC50 (NF-κB pathway) [nM] | Structure (SMILES)
590 | > 10000 | Cc1cc(C)c(-n2cc3sc(N[C@H]4COC[C@@H]4F)nc3n2)c(O)c1 (racemic) [Example 121, racemic mixture of 2-(5-{[(3R,4S)-4-fluorooxolan-3-yl]amino}-2H-pyrazolo[3,4-d][1,3]thiazol-2-yl)-3,5-dimethylphenol and 2-(5-{[(3S,4R)-4-fluorooxolan-3-yl]amino}-2H-pyrazolo[3,4-d][1,3]thiazol-2-yl)-3,5-dimethylphenol]
580 | > 30000 | Cc1cc(C)c(-n2cc3sc(N[C@H]4COC[C@H]4F)nc3n2)c(O)c1 (racemic) [Example 122, racemic mixture of 2-(5-{[(3R,4R)-4-fluorooxolan-3-yl]amino}-2H-pyrazolo[3,4-d][1,3]thiazol-2-yl)-3,5-dimethylphenol and 2-(5-{[(3S,4S)-4-fluorooxolan-3-yl]amino}-2H-pyrazolo[3,4-d][1,3]thiazol-2-yl)-3,5-dimethylphenol]
390 | > 30000 | Cc1cc(C)c(-n2cc3sc(N[C@H]4CN(C(=O)C(C)(C)O)C[C@@H]4F)nc3n2)c(O)c1 (racemic) [Example 123, racemic mixture of 1-[(3R,4R)-3-fluoro-4-{[2-(2-hydroxy-4,6-dimethylphenyl)-2H-pyrazolo[3,4-d][1,3]thiazol-5-yl]amino}pyrrolidin-1-yl]-2-hydroxy-2-methylpropan-1-one and 1-[(3S,4S)-3-fluoro-4-{[2-(2-hydroxy-4,6-dimethylphenyl)-2H-pyrazolo[3,4-d][1,3]thiazol-5-yl]amino}pyrrolidin-1-yl]-2-hydroxy-2-methylpropan-1-one]
340 | > 30000 | Cc1cc(C)c(-n2cc3sc(N[C@H]4CN(C(=O)C5(O)CC5)C[C@@H]4F)nc3n2)c(O)c1 (racemic) [Example 124, racemic mixture of [(3R,4R)-3-fluoro-4-{[2-(2-hydroxy-4,6-dimethylphenyl)-2H-pyrazolo[3,4-d][1,3]thiazol-5-yl]amino}pyrrolidin-1-yl](1-hydroxycyclopropyl) methanone and [(3S,4S)-3-fluoro-4-{[2-(2-hydroxy-4,6-dimethylphenyl)-2H-pyrazolo[3,4-d][1,3]thiazol-5-yl]amino}pyrrolidin-1-yl](1-hydroxycyclopropyl)methanone]
460 | > 30000 | Cc1cc(C)c(-n2cc3sc(N[C@H]4CN(C(=O)C5(C#N)CC5)C[C@@H]4F)nc3n2)c(O)c1 (racemic) [Example 125, racemic mixture of 1-[(3R,4R)-3-fluoro-4-{[2-(2-hydroxy-4,6-dimethylphenyl)-2H-pyrazolo[3,4-d][1,3]thiazol-5-yl]amino}pyrrolidine-1-carbonyl]cyclopropane-1-carbonitrile and 1-[(3S,4S)-3-fluoro-4-{[2-(2-hydroxy-4,6-dimethylphenyl)-2H-pyrazolo[3,4-d][1,3]thiazol-5-yl]amino}pyrrolidine-1-carbonyl]cyclopropane-1-carbonitrile]

Further lines, the compound ahead of its results:

Structure (SMILES) | IC50 (NLRP3 inflammasome) [nM] | IC50 (NF-κB pathway) [nM]
CCN1C[C@H](Nc2nc3nn(-c4c(C)cc(C)cc4O)cc3s2)[C@@H](F)C1 (racemic) [Example 21, racemic mixture of 2-(5-{[(3R,4R)-1-ethyl-4-fluoropyrrolidin-3-yl]amino}-2H-pyrazolo[3,4-d][1,3]thiazol-2-yl)-3,5-dimethylphenol and 2-(5-{[(3S,4S)-1-ethyl-4-fluoropyrrolidin-3-yl]amino}-2H-pyrazolo[3,4-d][1,3]thiazol-2-yl)-3,5-dimethylphenol] | 160 | > 30000
Cc1cc(C)c(-n2cc3sc(N[C@H]4CN(C)C[C@H]4F)nc3n2)c(O)c1 (racemic) [Example 22, racemic mixture of 2-(5-{[(3R,4S)-4-fluoro-1-methylpyrrolidin-3-yl]amino}-2H-1-pyrazolo[3,4-d][1,3]thiazol-2-yl)-3,5-dimethyl-phenol and 2-(5-{[(3S,4R)-4-fluoro-methylpyrrolidin-3-yl]amino}-2H-pyrazolo[3,4-d][1,3]thiazol-2-yl)-3,5-dimethylphenol] | 1100 | > 30000
CCN1C[C@@H](F)[C@@H](Nc2nc3nn(-c4c(C)cc(C)cc4O)cc3s2)C1 (racemic) [Example 23, racemic mixture of 2-(5-{[(3R,4S)-1-ethyl-4-fluoropyrrolidin-3-yl]amino}-2H-pyrazolo[3,4-d][1,3]thiazol-2-yl)-3,5-dimethylphenol and 2-(5-{[(3S,4R)-1-ethyl-4-fluoropyrrolidin-3-yl]amino}-2H-pyrazolo[3,4-d][1,3]thiazol-2-yl)-3,5-dimethylphenol] | 210 | > 30000
CC(=O)N1C[C@H](Nc2nc3nn(-c4c(C)cc(C)cc4O)cc3s2)[C@@H](F)C1 (racemic) [Example 104, racemic mixture of 1-[(3R,4R)-3-fluoro-4-{[2-(2-hydroxy-4,6-dimethylphenyl)-2H-pyrazolo[3,4-d][1,3]thiazol-5-yl]amino}pyrrolidin-1-yl]ethan-1-one and 1-[(3S,4S)-3-fluoro-4-{[2-(2-hydroxy-4,6-dimethylphenyl)-2H-pyrazolo[3,4-d][1,3]thiazol-5-yl]amino}pyrrolidin-1-yl] ethan-1-one] | 440 | > 30000
CCC(=O)N1C[C@H](Nc2nc3nn(-c4c(C)cc(C)cc4O)cc3s2)[C@@H](F)C1 (racemic) [Example 105, racemic mixture of 1-[(3R,4R)-3-fluoro-4-{[2-(2-hydroxy-4,6-dimethylphenyl)-2H-pyrazolo[3,4-d][1,3]thiazol-5-yl]amino}pyrrolidin-1-yl]propan-1-one and 1-[(3S,4S)-3-fluoro-4-{[2-(2-hydroxy-4,6-dimethylphenyl)-2H-pyrazolo[3,4-d][1,3]thiazol-5-yl]amino}pyrrolidin-1-yl]propan-1-one] | 310 | > 30000
Cc1cc(C)c(-n2cc3sc(N[C@H]4CN(C(=O)CC5CC5)C[C@@H]4F)nc3n2)c(O)c1 (racemic) [Example 106, racemic mixture of 2-cyclopropyl-1-[(3R,4R)-3-fluoro-4-{[2-(2-hydroxy-4,6-dimethylphenyl)-2H-pyrazolo[3,4-d][1,3]thiazol-5-yl]amino}pyrrolidin-1-yl]ethan-1-one and 2-cyclopropyl-1-[(3S,4S)-3-fluoro-4-{[2-(2-hydroxy-4,6-dimethylphenyl)-2H-pyrazolo[3,4-d][1,3]thiazol-5-yl]amino}pyrrolidin-1-yl]ethan-1-one] | 310 | > 30000
CNC(=O)N1C[C@H](Nc2nc3nn(-c4c(C)cc(C)cc4O)cc3s2)[C@@H](F)C1 (racemic) [Example 119, racemic mixture of (3R,4R)-3-fluoro-4-{[2-(2-hydroxy-4,6-dimethylphenyl)-2H-pyrazolo[3,4-d][1,3]thiazol-5-yl]amino}-N-methylpyrrolidine-1-carboxamide and (3S,4S)-3-fluoro-4-{[2-(2-hydroxy-4,6-dimethylphenyl)-2H-pyrazolo[3,4-d][1,3]thiazol-5-yl]amino}-N-methylpyrrolidine-1-carboxamide] | 370 | > 30000
